pIC50: −log10 of the molar value.
Legend:
Type in all cases: biochemical
ROCKII (Rho-kinase) = ROCKII (Rho-kinase) (Homo sapiens, UniProt O75116); assay: Rho-kinase (ROCKII) assay according to Patent Document 1; design: key to Realative Inhibitory Activity ROCKII: relative ratio; ROCKII-inhibiting activity defined as 1.0; conditions: for Realative Inhibitory Activity ROCKII: ROCKII-inhibiting activity defined as 1.0 (reference); for pIC50: read-out: Kinase Inhibiting Activity (IC50) ROCKII
Experimental: An Rho-kinase assay was carried out according to the method described in Patent Document 1, and the concentration of a compound for inhibiting Rho-kinase activity by 50% (hereinafter referred to as “IC50 value”) was calculated.
(§1) The ROCKII-inhibiting activity of a compound to be tested was defined as 1.0, and the inhibitory activities of the compound against kinases (PKA, PKG, CaMKII, and AuroraA) other than ROCKII were calculated as relative ratios to the ROCKII-inhibiting activity, based on the IC50 values calculated using the above-described evaluation system.

[1] = target: T1, Purified bovine PKA (catalyst subunit) (Bos taurus, UniProt P00517); assay: PKA kinase assay (Kinase-Glo ATP consumption); conditions: for pIC50: 1 μM ATP, read-out: Kinase Inhibiting Activity (IC50) PKA; for Realative Inhibitory Activity PKA: relative ratio to ROCKII (=1.0), based on IC50 values
T1 construct: Purified bovine PKA (catalyst subunit, Promega); purchased Promega
Experimental: Purified bovine PKA (catalyst subunit, Promega) was used to evaluate its activity to phosphorylate a substrate peptide (LRRASLG, Promega).
(§2) In a system of the total volume of 50 μL, the reaction of the above-mentioned enzyme (43 ng) was carried out at room temperature for 20 minutes in the presence of 40 mM of Tris-HCl (pH 7.5), 20 mM of magnesium chloride, 1 mg/mL of BSA, 5 μM of the above peptide, and 1 μM of ATP. After the kinase reaction, the luminescence intensity corresponding to the amount of ATP in the reaction system was measured using a luciferase reagent (Kinase-Glo Luminescent Kinase Assay kit, Promega) with a chemiluminescence measurement apparatus (MicroLumat, Berthold Technologies). The amount of ATP consumed by the phosphorylation reaction was calculated by comparison with the luminescence intensity in the system when the kinase reaction was not carried out.
(§3) With this system, the kinase reaction was carried out in the presence of a compound at various concentrations, and the IC50 value of the compound was determined based on the resulting compound concentration-response curve for ATP consumption.
as §1

Purified rat PKC = assay: PKC kinase assay (Kinase-Glo ATP consumption); conditions: 1 μM ATP; read-out: Kinase Inhibiting Activity (IC50) PKC
Experimental: Purified rat PKC (containing PKCα, β, and γ and small amounts of δ and ξ isoforms, Promega) was used to evaluate its activity to phosphorylate a substrate peptide (AAKIQASFRGHMARKK, Promega).
as §2, with “enzyme (5” for “enzyme (43”, “for 80” for “for 20”, “of 20” for “of 40”, “chloride, 0.4 mM of calcium chloride, 0.1” for “chloride, 1”, “BSA, 0.25 mM of EGTA, 0.5 mg/mL of phosphatidylserine (Sigma), 0.05 mg/mL of 1,2-dioctanoyl-sn-glycerol (Sigma), 10” for “BSA, 5”
as §3

ROCKII (Rho-kinase), sequence (O75116 whole entry, species assumed): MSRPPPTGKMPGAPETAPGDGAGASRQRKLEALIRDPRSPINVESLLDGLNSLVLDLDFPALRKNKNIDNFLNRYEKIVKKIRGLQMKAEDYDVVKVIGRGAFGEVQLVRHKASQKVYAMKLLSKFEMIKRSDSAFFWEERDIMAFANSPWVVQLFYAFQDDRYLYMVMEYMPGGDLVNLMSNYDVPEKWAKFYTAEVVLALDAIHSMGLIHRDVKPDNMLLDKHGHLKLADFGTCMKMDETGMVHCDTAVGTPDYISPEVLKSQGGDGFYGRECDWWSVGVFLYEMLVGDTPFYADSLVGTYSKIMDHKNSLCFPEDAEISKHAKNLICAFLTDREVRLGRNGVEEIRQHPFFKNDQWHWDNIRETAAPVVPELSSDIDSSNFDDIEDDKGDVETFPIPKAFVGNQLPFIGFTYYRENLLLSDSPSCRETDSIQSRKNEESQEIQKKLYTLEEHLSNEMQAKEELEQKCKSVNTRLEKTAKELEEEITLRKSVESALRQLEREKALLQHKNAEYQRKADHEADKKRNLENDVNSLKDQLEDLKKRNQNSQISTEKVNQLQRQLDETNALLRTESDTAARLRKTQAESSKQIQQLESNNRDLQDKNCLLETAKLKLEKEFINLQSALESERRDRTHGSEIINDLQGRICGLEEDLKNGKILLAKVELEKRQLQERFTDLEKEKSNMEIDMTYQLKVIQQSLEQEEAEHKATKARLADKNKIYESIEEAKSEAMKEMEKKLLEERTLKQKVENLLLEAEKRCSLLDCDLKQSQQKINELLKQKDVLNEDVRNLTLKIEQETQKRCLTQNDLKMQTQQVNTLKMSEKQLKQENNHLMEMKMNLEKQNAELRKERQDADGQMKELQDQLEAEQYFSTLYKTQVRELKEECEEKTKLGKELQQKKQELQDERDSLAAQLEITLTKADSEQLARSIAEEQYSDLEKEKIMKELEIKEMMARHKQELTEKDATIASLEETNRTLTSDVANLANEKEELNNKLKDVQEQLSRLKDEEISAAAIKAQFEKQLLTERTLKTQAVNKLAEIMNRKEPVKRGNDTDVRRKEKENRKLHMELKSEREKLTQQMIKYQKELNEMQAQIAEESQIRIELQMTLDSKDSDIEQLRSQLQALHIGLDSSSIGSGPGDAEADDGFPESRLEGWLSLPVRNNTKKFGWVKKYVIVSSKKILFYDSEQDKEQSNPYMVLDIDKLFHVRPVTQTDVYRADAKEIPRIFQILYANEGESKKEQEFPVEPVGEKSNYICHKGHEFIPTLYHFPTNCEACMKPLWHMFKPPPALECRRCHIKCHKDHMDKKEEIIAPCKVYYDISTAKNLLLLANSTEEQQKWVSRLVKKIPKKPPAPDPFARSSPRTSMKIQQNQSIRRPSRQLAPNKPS

Compound	Realative Inhibitory Activity ROCKII (ROCKII (Rho-kinase))	pIC50 (ROCKII (Rho-kinase))	pIC50 [1]	Realative Inhibitory Activity PKA [1]	pIC50 (Purified rat PKC)
2-(S)-1-(4-fluoroisoquinoline-5-sulfonyl)-4-glycyl-2-methylhomopiperazine dihydrochloride [Example 1]	1	7.49	< 4.00	>3000	< 4.00
CNCC(=O)N1CCCN(S(=O)(=O)c2cccc3cncc(F)c23)[C@@H](C)C1.Cl.Cl [Example 2, 2-(S)-1-(4-fluoroisoquinoline-5-sulfonyl)-2-methyl-4-(N-methylglycyl)homopiperazine dihydrochloride]	1	7.54	< 4.00	>3000	< 4.00

Reference: patent publication US20090306053A1, “Highly selective rho-kinase inhibitor” (priority 2005, published 2009)
